Legend:
[1] = biological target: T1, human recombinant wild-type ALK kinase domain (amino acids 1093-1411) (Homo sapiens, UniProt Q9UM73); experiment: ALK enzyme assay 2 (microfluidic mobility shift assay); type: biochemical;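 further: kinase reaction run 1 h at room temperature, conversion quantified by electrophoretic separation of fluorescent peptide substrate from phosphorylated product, about 15-20% turnover without inhibitor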
T1 construct: ALK kinase domain (amino acids 1093-1411); made in house
T1 sequence (Q9UM73 1093-1411): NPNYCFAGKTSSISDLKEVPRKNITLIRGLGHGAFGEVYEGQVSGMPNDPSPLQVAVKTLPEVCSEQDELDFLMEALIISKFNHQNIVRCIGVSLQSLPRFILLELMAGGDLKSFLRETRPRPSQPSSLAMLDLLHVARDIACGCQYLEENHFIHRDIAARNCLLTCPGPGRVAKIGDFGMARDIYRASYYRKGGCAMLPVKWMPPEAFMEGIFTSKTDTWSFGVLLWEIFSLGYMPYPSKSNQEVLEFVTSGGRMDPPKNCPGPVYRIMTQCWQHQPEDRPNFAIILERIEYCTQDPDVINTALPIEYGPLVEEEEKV
Description: The reactions were incubated for 1 h at room temperature, stopped by the addition of 0.1 M EDTA, pH 8, and the extent of reactions (˜15-20% conversion with no inhibitor) was determined after electrophoretic separation of the fluorescently labeled peptide substrate and phosphorylated product on an LabChip EZ Reader II (Caliper Life Sciences, Hopkinton, Mass.).

[2] = biological target: EML4-ALK wt v1 in NIH-3T3 cells (Homo sapiens, UniProt Q9UM73)
EML4-ALK wt v1 in NIH-3T3 cells, sequence (Q9UM73 with tags, fused parts or gaps): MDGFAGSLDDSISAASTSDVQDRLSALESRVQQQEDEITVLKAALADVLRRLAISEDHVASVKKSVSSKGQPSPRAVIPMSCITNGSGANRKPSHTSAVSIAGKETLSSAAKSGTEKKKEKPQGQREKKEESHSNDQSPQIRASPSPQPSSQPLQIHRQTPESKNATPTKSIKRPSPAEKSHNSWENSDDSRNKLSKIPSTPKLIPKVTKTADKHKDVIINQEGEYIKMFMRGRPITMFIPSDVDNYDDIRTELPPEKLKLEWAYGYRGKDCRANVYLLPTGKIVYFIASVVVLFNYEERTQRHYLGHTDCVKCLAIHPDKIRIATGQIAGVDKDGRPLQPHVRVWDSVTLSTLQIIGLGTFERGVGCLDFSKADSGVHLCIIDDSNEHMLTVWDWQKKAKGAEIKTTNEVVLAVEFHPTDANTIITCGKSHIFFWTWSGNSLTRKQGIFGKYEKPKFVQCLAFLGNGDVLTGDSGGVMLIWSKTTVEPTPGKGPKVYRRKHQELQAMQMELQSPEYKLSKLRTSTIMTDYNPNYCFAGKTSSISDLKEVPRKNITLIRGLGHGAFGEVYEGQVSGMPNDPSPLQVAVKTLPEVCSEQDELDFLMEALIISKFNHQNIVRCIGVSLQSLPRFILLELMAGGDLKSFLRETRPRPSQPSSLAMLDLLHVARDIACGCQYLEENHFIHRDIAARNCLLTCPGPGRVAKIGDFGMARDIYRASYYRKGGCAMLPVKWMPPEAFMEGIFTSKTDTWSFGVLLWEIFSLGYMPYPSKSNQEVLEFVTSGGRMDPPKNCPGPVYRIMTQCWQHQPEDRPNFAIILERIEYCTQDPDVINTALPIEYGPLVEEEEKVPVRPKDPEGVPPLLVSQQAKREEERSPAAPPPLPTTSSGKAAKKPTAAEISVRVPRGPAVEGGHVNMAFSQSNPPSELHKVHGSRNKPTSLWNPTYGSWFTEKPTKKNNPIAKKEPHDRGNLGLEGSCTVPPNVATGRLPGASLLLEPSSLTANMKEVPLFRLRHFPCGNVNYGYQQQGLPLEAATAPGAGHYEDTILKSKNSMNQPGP

| Ki [1] [nM] | IC50 [2] [nM] | SMILES |
| --- | --- | --- |
| < 0.2 | 3.21 | COc1ccc(S(C)(=O)=O)cc1-c1cnc(N)c(O[C@H](C)c2cc(F)ccc2-n2nccn2)c1 [Example 101, 3-{(1R)-1-[5-fluoro-2-(2H-1,2,3-triazol-2-yl)phenyl]ethoxy}-5-[2-methoxy-5-(methylsulfonyl)phenyl] pyridin-2-amine] |
| 0.638 | 17.6 | C[C@@H](Oc1cc(-c2ccnc(N3CCOCC3)c2F)cnc1N)c1cc(F)ccc1-n1nccn1 [Example 131, 3′-fluoro-5-{(1R)-1-[5-fluoro-2-(2H-1,2,3-triazol-2-yl)phenyl]ethoxy}-2′-(morpholin-4-yl)-3,4′-bipyridin-6-amine] |
| 0.203 | 38.1 | C[C@@H](Oc1cc(-c2cccc(P(C)(C)=O)c2)cnc1N)c1cc(F)ccc1-n1nccn1 [Example 112, 5-[3-(dimethylphosphoryl)phenyl]-3-{(1R)-1-[5-fluoro-2-(2H-1,2,3-triazol-2-yl)phenyl]ethoxy}pyridin-2-amine] |
| < 0.2 | 5.48 | C[C@@H](Oc1nc(-c2ccnc(N3CCN(C)CC3)c2)cnc1N)c1cc(F)ccc1-n1nccn1 [Example 70, 3-{(1R)-1-[5-fluoro-2-(2H-1,2,3-triazol-2-yl)phenyl]ethoxy}-5-[2-(4-methylpiperazin-1-yl)pyridin-4-yl]pyrazin-2-amine] |
| 7.2 | 729 | CNC(=O)c1ncc(-c2cnc(N)c(O[C@H](C)c3cc(F)ccc3-n3nccn3)c2)cn1 [Example 92, 5-(6-amino-5-{(1R)-1-[5-fluoro-2-(2H-1,2,3-triazol-2-yl)phenyl]ethoxy}pyridin-3-yl)-N-methylpyrimidine-2-carboxamide] |
| 4.37 | 289 | Cc1nc(-c2cnc(N)c(O[C@H](C)c3cc(F)ccc3-n3nccn3)c2)sc1C(C)O (stereo partly drawn) [Example 115, 1-[2-(6-amino-5-{(1R)-1-[5-fluoro-2-(2H-1,2,3-triazol-2-yl)phenyl]ethoxy}pyridin-3-yl)-4-methyl-1,3-thiazol-5-yl]ethanol] |
| < 0.2 | 6.77 | C[C@@H](Oc1cc(-c2cnn(C3CCNCC3F)c2)cnc1N)c1cc(F)ccc1-n1nccn1 (stereo partly drawn) [Example 74, 5-[1-(3-fluoropiperidin-4-yl)-1H-pyrazol-4-yl]-3-{(1R)-1-[5-fluoro-2-(2H-1,2,3-triazol-2-yl)phenyl]ethoxy} pyridin-2-amine] |
| < 0.2 | 4.39 | C[C@@H](Oc1cc(-c2ccc(CO)c(S(C)(=O)=O)c2)cnc1N)c1cc(F)ccc1-n1nccn1 [Example 119, [4-(6-amino-5-{(1R)-1-[5-fluoro-2-(2H-1,2,3-triazol-2-yl)phenyl]ethoxy}pyridin-3-yl)-2-(methylsulfonyl)phenyl]methanol] |
| 1.04 | 71.3 | C[C@@H](Oc1cc(-c2ccc(O)nc2)cnc1N)c1cc(F)ccc1-n1nccn1 [Example 121, 6′-amino-5′-{(1R)-1-[5-fluoro-2-(2H-1,2,3-triazol-2-yl)phenyl]ethoxy}-3,3′-bipyridin-6-ol] |
| 1.1 | 13.2 | C[C@@H](Oc1cc(-c2ccc3c(c2)CCS3(=O)=O)cnc1N)c1cc(F)ccc1-n1nccn1 [Example 99, 5-(1,1-dioxido-2,3-dihydro-1-benzothiophen-5-yl)-3-{(1R)-1-[5-fluoro-2-(2H-1,2,3-triazol-2-yl)phenyl]ethoxy}pyridin-2-amine] |
| 2.4 | 123 | C[C@@H](Oc1nc(-c2ccc(C(N)=O)nc2)cnc1N)c1cc(F)ccc1-n1nccn1 [Example 64, 5-(5-amino-6-{(1R)-1-[5-fluoro-2-(2H-1,2,3-triazol-2-yl)phenyl]ethoxy}pyrazin-2-yl)pyridine-2-carboxamide] |
| 0.2 | 15.3 | CC(O)Cn1cc(-c2cnc(N)c(O[C@H](C)c3cc(F)ccc3-n3nccn3)c2)cn1 (stereo partly drawn) [Example 77, 1-[4-(6-amino-5-{(1R)-1-[5-fluoro-2-(2H-1,2,3-triazol-2-yl)phenyl]ethoxy}pyridin-3-yl)-1H-pyrazol-1-yl]propan-2-ol] |
| 0.32 | 8.33 | COc1ccc(F)cc1C(C)Oc1cc(-c2ccc(C(C)N)nc2)cnc1N (stereo not drawn) [Example 138, 6′-(1-aminoethyl)-5-[1-(5-fluoro-2-methoxyphenyl)ethoxy]-3,3′-bipyridin-6-amine] |
| 1.28 | 687 | COc1ccc(F)cc1C(C)Oc1cc(-c2nsc(S(C)(=O)=O)n2)cnc1N (stereo not drawn) [Example 133, 3-[1-(5-fluoro-2-methoxyphenyl)ethoxy]-5-[5-(methylsulfonyl)-1,2,4-thiadiazol-3-yl]pyridin-2-amine] |
| < 0.2 | 4.14 | C[C@@H](Oc1cc(-c2cccc(CS(C)(=O)=O)c2)cnc1N)c1cc(F)ccc1-n1nccn1 [Example 87, 3-{(1R)-1-[5-fluoro-2-(2H-1,2,3-triazol-2-yl)phenyl]ethoxy}-5-{3-[(methylsulfonyl)methyl]phenyl}pyridin-2-amine] |
| < 0.2 | 75.3 | CCn1cc(-c2cnc(N)c(O[C@H](C)c3cc(F)ccc3-n3nccn3)c2)ccc1=O [Example 82, 6′-amino-1-ethyl-5′-{(1R)-1-[5-fluoro-2-(2H-1,2,3-triazol-2-yl)phenyl]ethoxy}-3,3′-bipyridin-6(1H)-one] |
| < 0.2 | 10.5 | CCc1nc(CS(C)(=O)=O)sc1-c1cnc(N)c(O[C@H](C)c2cc(F)ccc2-n2nccn2)c1 [Example 145, (R)-5-(4-ethyl-2-((methylsulfonyl)methyl)thiazol-5-yl)-3-(1-(5-fluoro-2-(2H-1,2,3-triazol-2-yl)phenyl)ethoxy)pyridin-2-amine] |
| < 0.2 | 2.04 | Cc1nn(C2CCNCC2)cc1-c1cnc(N)c(O[C@H](C)c2cc(F)ccc2-n2nccn2)c1 [Example 124, 3-{(1R)-1-[5-fluoro-2-(2H-1,2,3-triazol-2-yl)phenyl]ethoxy}-5-[3-methyl-1-(piperidin-4-yl)-1H-pyrazol-4-yl]pyridin-2-amine] |
| < 0.2 | 5.67 | C[C@@H](Oc1cc(-c2ccnc(N3CCN(C)CC3)c2F)cnc1N)c1cc(F)ccc1-n1nccn1 [Example 132, 3′-fluoro-5-{(1R)-1-[5-fluoro-2-(2H-1,2,3-triazol-2-yl)phenyl]ethoxy}-2,-(4-methylpiperazin-1-yl)-3,4′-bipyridin-6-amine] |
| < 0.2 | 8.98 | CNS(=O)(=O)c1ccc(OC)c(-c2cnc(N)c(O[C@H](C)c3cc(F)ccc3-n3nccn3)c2)c1 [Example 143, 3-(6-amino-5-{(1R)-1-[5-fluoro-2-(2H-1,2,3-triazol-2-yl)phenyl]ethoxy}pyridin-3-yl)-4-methoxy-N-methylbenzenesulfonamide] |
| < 0.193 | 12.1 | Cc1n[nH]c(C)c1-c1cnc(N)c(O[C@H](C)c2cc(F)ccc2-n2nccn2)c1 [Example 126, 5-(3,5-Dimethyl-1H-pyrazol-4-yl)-3-{(1R)-1-[5-fluoro-2-(2H-1,2,3-triazol-2-yl)phenyl]ethoxy}pyridin-2-amine] |
| 2.14 | 161 | Cc1nc(C#N)c(-c2cnc(N)c(O[C@H](C)c3cc(F)ccc3-n3nccn3)c2)o1 [Example 120, 5-(6-amino-5-{(1R)-1-[5-fluoro-2-(2H-1,2,3-triazol-2-yl)phenyl]ethoxy}pyridin-3-yl)-2-methyl-1,3-oxazole-4-carbonitrile] |
| 0.77 | 10.3 | Cc1ccc(-c2cnc(N)c(O[C@H](C)c3cc(F)ccc3-n3nccn3)c2)cn1 [Example 117, 5-{(1R)-1-[5-fluoro-2-(2H-1,2,3-triazol-2-yl)phenyl]ethoxy}-6′-methyl-3,3′-bipyridin-6-amine] |
| < 0.2 | 9.8 | C[C@@H](Oc1cc(-c2cnn(C3CCN(C(=O)CN(C)C)CC3)c2)cnc1N)c1cc(F)ccc1-n1nccn1 [Example 128, 1-{4-[4-(6-amino-5-{(1R)-1-[5-fluoro-2-(2H-1,2,3-triazol-2-yl)phenyl]ethoxy}pyridin-3-yl)-1H-pyrazol-1-yl]piperidin-1-yl}-2-(dimethylamino)ethanone] |
| < 0.2 | 13.2 | Cc1nn(CC#N)c(C)c1-c1cnc(N)c(O[C@H](C)c2cc(F)ccc2-n2nccn2)c1 [Example 84, [4-(6-amino-5-{(1R)-1-[5-fluoro-2-(2H-1,2,3-triazol-2-yl)phenyl]ethoxy}pyridin-3-yl)-3,5-dimethyl-1H-pyrazol-1-yl]acetonitrile] |
| 1.1 | 52.6 | COc1ncccc1-c1cnc(N)c(OC(C)c2cc(F)ccc2N2CCCC2=O)n1 (stereo not drawn) [Example 69, 1-[2-(1-{[3-amino-6-(2-methoxypyridin-3-yl)pyrazin-2-yl]oxy}ethyl)-4-fluorophenyl]pyrroli-din-2-one] |
| < 0.2 | 4.17 | C[C@@H](Oc1cc(-c2c[nH]nc2C#N)cnc1N)c1cc(F)ccc1-n1nccn1 [Example 116, 4-(6-amino-5-{(1R)-1-[5-fluoro-2-(2H-1,2,3-triazol-2-yl)phenyl]ethoxy}pyridin-3-yl)-1H-pyrazole-3-carbonitrile] |
| < 0.2 | 0.622 | C[C@@H](Oc1cc(-c2ccc(C(C)(C)O)c(S(C)(=O)=O)c2)cnc1N)c1cc(F)ccc1-n1nccn1 [Example 111, 2-[4-(6-amino-5-{(1R)-1-[5-fluoro-2-(2H-1,2,3-triazol-2-yl)phenyl]ethoxy}pyridin-3-yl)-2-(methylsulfonyl)phenyl]propan-2-ol] |
| 0.327 | 41.3 | C[C@@H](Oc1cc(-c2cnc(CO)n2C)cnc1N)c1cc(F)ccc1-n1nccn1 [Example 97, [5-(6-amino-5-{(1R)-1-[5-fluoro-2-(2H-1,2,3-triazol-2-yl)phenyl]ethoxy}pyridin-3-yl)-1-methyl-1H-imidazol-2-yl]methanol] |
| < 0.2 | 12.2 | CNCc1ccc(-c2cnc(N)c(O[C@H](C)c3cc(F)ccc3-n3nccn3)c2)c(OC)n1 [Example 100, 5-{(1R)-1-[5-fluoro-2-(2H-1,2,3-triazol-2-yl)phenyl]ethoxy}-2′-methoxy-6′-[(methylamino)methyl]-3,3′-bipyridin-6-amine] |

From patent publication US8916593B2, “Alkoxy-substituted 2-aminopyridines as ALK inhibitors” (Pfizer Inc., priority 2010, dated 2014)
